Assay results published in US20050272770A1, “Compositions and treatments for inhibiting kinase and/or HMG-CoA reductase” (priority 2004, published 2005).
pIC50: −log10 of the molar value. Where “and” joins values, the source holds several entries; their conditions need not be identical. Equal values may be shown once. Where a name gives a salt, the structure may show the parent alone. Read-outs that look alike come from different tables or passages of the source. Values belong to the compound of their own block, whether it stands above or below them.

Assays:
[1] = molecular target: T1, human recombinant p38α protein kinase (Homo sapiens, UniProt Q16539); assay: Human p38α MAP kinase inhibition assay (cell-free, phosphorylation of myelin basic protein); assay type: biochemical
T1 construct: purchased UBI 14-251; host or cells: E. coli
Experimental: In vitro cell-free p38α MAP kinase inhibition assays were conducted by the method as described in Clerk et al., FEBS Lett., 426:93-96 (1998) for a number of lactones in formulas I/IIa/IIb. Briefly, human recombinant p38α protein kinase expressed in E. coli (UBI #14-251) was used. Myelin basic protein (MBP, UBI #13-110) was employed as substrate, and microtiter plate wells were coated with MBP (0.01 mg/ml) overnight at 4° C. Candidate compound and/or vehicle was preincubated with 0.075 μg/mL enzyme in modified HEPES buffer pH 7.4 at 25° C. for 15 minutes. The reaction was initiated by addition of 100 μM ATP and allowed to proceed for another 60 minutes. The reaction was terminated by aspirating the solution. Phosphorylated MBP was detected by incubation with a mouse monoclonal IgG2a anti-phosphoMBP antibody. Bound anti-phosphoMBP antibody was quantitated by incubation with a HRP conjugated goat anti-mouse IgG.

[2] = tested on: oxazolone-induced mouse ear swelling; assay: Model for inhibition of topical inflammation (oxazolone-induced mouse ear swelling); assay type: in vivo, BALB/c male mice; settings: for % Inh. of oxazolone-induced mouse ear swelling: topical, ear thickness 24 hours after challenge
Experimental: Left ears were untreated. The thickness of both ears of each animal was measured with a Dyer model micrometer gauge 24 hours after oxazolone challenge, and the net increase in thickness of right ears versus left ears was calculated for each animal. Percent inhibition was calculated according to the formula: [(Iv−It)/Iv]×100, where Iv and It respectively refer to the average net increase in right ear thickness (mm) for vehicle and candidate compound treated mice.

[3] = tested on: LPS-induced TNF-α release from human peripheral blood mononuclear cells; assay: Whole cell LPS-stimulated TNF-α release assay; assay type: cell-based
Experimental: The procedure as described in Welker et al., Int. Arch. Allergy and Immunol. 109:110-115 (1996) can be followed. Briefly, a candidate compound and/or vehicle can be preincubated with human peripheral blood mononuclear leukocytes (PBML, 5×10^5/ml) cells in AIM-V medium pH 7.4 for 2 hours. Lipopolysaccharide (LPS, 25 ng/ml) can be added to stimulate the cells, which can be incubated overnight at 37° C. TNF-α cytokine levels in the conditioned medium can then be quantitated using a sandwich ELISA kit.
(§1) Table III below summarizes the results of in vitro assays described above for HMG-CoA and/or MAP kinase inhibitory activity of specific pyrazole compounds.

[4] = molecular target: T2, rat liver HMG-CoA reductase (Rattus norvegicus, UniProt P51639); assay: Cell-free HMG-CoA reductase assay; assay type: biochemical; settings: concentration required to inhibit rat liver HMG-CoA reductase by 50%; read-out: IC50 HMG-CoA R
T2 construct: from tissue; host or cells: rat liver (per the results' head)
T2 sequence (P51639 1-887): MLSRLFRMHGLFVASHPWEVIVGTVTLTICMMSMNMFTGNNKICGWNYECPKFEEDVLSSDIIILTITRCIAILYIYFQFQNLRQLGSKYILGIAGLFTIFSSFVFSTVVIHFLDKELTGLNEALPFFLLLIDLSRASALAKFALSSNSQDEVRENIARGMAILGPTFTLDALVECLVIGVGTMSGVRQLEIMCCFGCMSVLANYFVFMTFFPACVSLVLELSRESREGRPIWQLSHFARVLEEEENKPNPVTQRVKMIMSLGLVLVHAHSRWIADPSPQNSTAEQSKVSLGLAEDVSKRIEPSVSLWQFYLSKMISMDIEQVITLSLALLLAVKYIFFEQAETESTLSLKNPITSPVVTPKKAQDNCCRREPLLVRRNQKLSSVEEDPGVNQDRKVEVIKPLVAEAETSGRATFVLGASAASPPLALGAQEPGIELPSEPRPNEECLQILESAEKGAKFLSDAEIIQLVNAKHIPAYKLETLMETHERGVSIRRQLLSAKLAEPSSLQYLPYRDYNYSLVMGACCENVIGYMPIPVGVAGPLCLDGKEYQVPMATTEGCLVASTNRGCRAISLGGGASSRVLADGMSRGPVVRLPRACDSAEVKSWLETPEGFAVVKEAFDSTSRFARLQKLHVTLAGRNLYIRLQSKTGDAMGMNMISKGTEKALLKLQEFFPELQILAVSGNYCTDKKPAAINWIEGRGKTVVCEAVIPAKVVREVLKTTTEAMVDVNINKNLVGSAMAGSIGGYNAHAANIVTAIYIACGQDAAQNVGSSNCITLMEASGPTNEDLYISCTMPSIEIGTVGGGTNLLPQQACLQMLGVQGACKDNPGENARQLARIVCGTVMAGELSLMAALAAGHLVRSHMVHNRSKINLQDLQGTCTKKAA
Experimental: An example of a cell-free HMG-CoA reductase assay involves radiometric procedures described in Shum et al., Ther. Drug Monit. 20:41-49 (1998), incorporated herein by reference. Briefly, about 150 μg/mL of HMG-CoA reductase can be incubated with a candidate compound, together with about 12 μM [^14C]HMG-CoA and about 200 μM NADPH in about 200 μL 0.2M phosphate buffer (pH about 7.2) for about 0.5 h at about 37° C. The [^14C]mevalonate that forms can be converted under acidic conditions to [^14C]mevalonolactone and separated from un-reacted substrate, for example, by ion-exchange chromatography, and then quantified, for example, by liquid scintillation counting.
as §1

[5] = in vitro, human p38α MAP kinase, Table I, read-out: IC50 p38α
[6] = inhibition of phosphorylation of myelin basic protein by recombinant human p38α MAP kinase by 50%, Table III, read-out: IC50 p38α MAPK
[7] = Homo sapiens, PBMC; read-out: IC50 Whole cell
[8] = Homo sapiens, PBMC, read-out: IC50 Whole cell

T1 sequence (Q16539 whole entry): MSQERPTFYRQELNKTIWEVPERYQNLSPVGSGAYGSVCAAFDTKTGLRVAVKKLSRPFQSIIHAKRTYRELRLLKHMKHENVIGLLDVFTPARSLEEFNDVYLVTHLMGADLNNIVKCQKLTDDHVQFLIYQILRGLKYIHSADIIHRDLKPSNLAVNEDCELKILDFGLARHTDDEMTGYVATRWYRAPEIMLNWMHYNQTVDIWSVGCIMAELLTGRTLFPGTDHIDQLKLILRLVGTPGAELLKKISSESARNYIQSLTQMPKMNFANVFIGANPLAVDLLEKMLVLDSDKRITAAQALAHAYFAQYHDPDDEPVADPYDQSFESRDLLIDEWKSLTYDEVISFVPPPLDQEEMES

Compound: CC(C)c1c(C(=O)Nc2ccccc2)c(-c2ccccc2)c(-c2ccc(F)cc2)n1CC[C@@H](O)C[C@@H](O)CC(=O)O [Atorvastatin calcium]
pIC50 [1, 5]: < 4.00

pIC50 [1, 5]: ~4.70 and 4.70
Compound: CC(C)c1c(C(=O)Nc2ccccc2)c(-c2ccccc2)c(-c2ccc(F)cc2)n1CC[C@@H]1C[C@@H](O)CC(=O)O1 [Atorvastatin lactone]
anti-inflammatory activity in ear swelling model, comparison in words ([2]; observations on Table II): most potent anti-inflammatory activity in this assay | % Inh. of oxazolone-induced mouse ear swelling ([2]; dose 2 × 0.3 mg): 40% | % Inh. of oxazolone-induced mouse ear swelling ([2]; dose 2 × 0.3 mg, listed as atorvastatin lactone): 50% and 58% and 40% | % Inh. of oxazolone-induced mouse ear swelling ([2]; dose 2 × 1 mg): 58% | % Inh. of oxazolone-induced mouse ear swelling ([2]; dose 2 × 2 mg): 50%

Compound: CC(C)c1c(C(=O)Nc2ccccc2)c(-c2ccccc2)c(-c2ccc(F)cc2)n1CC[C@@H](O)C[C@@H](O)CC(=O)O [Atorvastatin sodium]
% Inh. of oxazolone-induced mouse ear swelling ([2]; dose 2 × 0.3 mg): 9% | % Inh. of oxazolone-induced mouse ear swelling ([2]; dose 2 × 1 mg): 31% | % Inh. of oxazolone-induced mouse ear swelling ([2]; dose 2 × 2 mg): 63%

Compound: CCC(C)c1nn(-c2ccnc(Nc3ccccc3)c2)c(-c2ccc(F)cc2)c1/C=C/[C@@H]1C[C@@H](O)CC(=O)O1 (some centres unmarked) [Example 10b]
pIC50 [1, 6]: 5.22 | pIC50 [3, 7]: 4.85

Compound: O=C(O)C[C@H](O)C[C@H](O)/C=C/c1c(-c2ccccc2)nn(-c2ccnc(Nc3ccccc3)n2)c1-c1ccccc1 [Example 11a, (3R,5S,E)-7-(3,5-diphenyl-1-(2-(phenylamino)pyrimidin-4-yl)-1H-pyrazol-4-yl)-3,5-dihydroxyhept-6-enoic acid calcium salt]
pIC50 [1, 6]: 4.96 | pIC50 [4]: 7.48 | pIC50 [3, 8]: 4.51

Compound: O=C1C[C@H](O)C[C@@H](/C=C/c2c(-c3ccccc3)nn(-c3ccnc(Nc4ccccc4)n3)c2-c2ccccc2)O1 [Example 11b, (4R,6S,E)-6-(2-(3,5-diphenyl-1-(2-(phenylamino)pyrimidin-4-yl)-1H-pyrazol-4-yl)vinyl)-4-hydroxy-tetrahydropyran-2-one]
pIC50 [1, 6]: 5.22 | pIC50 [3, 7]: 4.68

Compound: O=C(O)C[C@H](O)C[C@H](O)CCc1c(-c2ccccc2)nn(-c2ccnc(Nc3ccccc3)n2)c1-c1ccccc1 [Example 11c, (3R,5R)-7-(3,5-diphenyl-1-(2-(phenylamino)pyrimidin-4-yl)-1H-pyrazol-4-yl)-3,5-dihydroxyheptanoic acid]
pIC50 [4]: < 7.00 | pIC50 [3, 7]: 4.74

Compound: O=C1C[C@H](O)C[C@@H](CCc2c(-c3ccccc3)nn(-c3ccnc(Nc4ccccc4)n3)c2-c2ccccc2)O1 [Example 11d, (4R,6R)-6-(2-(3,5-diphenyl-1-(2-(phenylamino)pyrimidin-4-yl)-1H-pyrazol-4-yl)ethyl)-4-hydroxy-tetrahydropyran-2-one]
pIC50 [1, 6]: 5.10 | pIC50 [3, 7]: 4.96

Compound: COc1nccc(-n2nc(C(C)C)c(/C=C/[C@@H](O)C[C@@H](O)CC(=O)O)c2-c2cccc(C(F)(F)F)c2)n1 [Example 11e, (3R,5S,E)-3,5-dihydroxy-7-(3-isopropyl-1-(2-methoxypyrimidin-4-yl)-5-(3-(trifluoromethyl)phenyl)-1H-pyrazol-4-yl)hept-6-enoic acid calcium salt]
pIC50 [1, 6]: 4.44 | pIC50 [4]: 8.70 | pIC50 ([3]; inhibition of LPS-induced TNF-α release from human peripheral blood mononuclear cells by 50%; read-out: IC50 Whole cell): 4.52

pIC50 [1, 6]: < 4.00 | pIC50 [3, 7]: 4.80
Compound: COc1nccc(-n2nc(C(C)C)c(/C=C/[C@@H]3C[C@@H](O)CC(=O)O3)c2-c2cccc(C(F)(F)F)c2)n1 [Example 11f, (4R,6S,E)-4-hydroxy-6-(2-(3-isopropyl-1-(2-methoxypyrimidin-4-yl)-5-(3-(trifluoromethyl)phenyl)-1H-pyrazol-4-yl)vinyl)-tetrahydropyran-2-one]

Compound: O=C(O)C[C@H](O)C[C@H](O)/C=C/c1cnn(-c2ccnc(Nc3ccccc3)n2)c1-c1cccc(C(F)(F)F)c1 [Example 11g, (3R,5S,E)-3,5-dihydroxy-7-(1-(2-(phenylamino)pyrimidin-4-yl)-5-(3-(trifluoromethyl)phenyl)-1H-pyrazol-4-yl)hept-6-enoic acid calcium salt]
pIC50 [1, 6]: 4.85 | pIC50 [4]: < 7.00 | pIC50 [3, 8]: 4.28

pIC50 [1, 5]: ~4.47 and 4.47
Compound: CC(C)n1c(/C=C/C(O)CC(O)CC(=O)O)c(-c2ccc(F)cc2)c2ccccc21 (centres unmarked) [Fluvastatin sodium]
% Inh. of oxazolone-induced mouse ear swelling ([2]; dose 2 × 0.3 mg): 28%

Compound: COc1ccc2c(c1)c(CC(=O)O)c(C)n2C(=O)c1ccc(Cl)cc1 [Indomethacin]
% Inh. of oxazolone-induced mouse ear swelling ([2]; dose 2 × 0.3 mg): 44%

Compound: O=C([O-])C[C@H](O)C[C@H](O)/C=C/c1c(C2CC2)nc2ccccc2c1-c1ccc(F)cc1.O=C([O-])C[C@H](O)C[C@H](O)/C=C/c1c(C2CC2)nc2ccccc2c1-c1ccc(F)cc1.[Ca+2] [Pitavastatin calcium]
% Inh. of oxazolone-induced mouse ear swelling ([2]; dose 2 × 0.3 mg): 9% | % Inh. of oxazolone-induced mouse ear swelling ([2]; dose 2 × 2 mg): 60%

Compound: CC[C@H](C)C(=O)O[C@H]1C[C@H](O)C=C2C=C[C@H](C)[C@H](CC[C@@H](O)C[C@@H](O)CC(=O)O)[C@H]21 [Pravastatin sodium]
% Inh. of oxazolone-induced mouse ear swelling ([2]; dose 2 × 0.3 mg): 24%

pIC50 [1, 5]: 4.04
Compound: CC(C)c1nc(N(C)S(C)(=O)=O)nc(-c2ccc(F)cc2)c1/C=C/[C@@H](O)C[C@@H](O)CC(=O)O [Rosuvastatin calcium]

Compound: CC(C)c1nc(N(C)S(C)(=O)=O)nc(-c2ccc(F)cc2)c1/C=C/[C@@H](O)C[C@@H](O)CC(=O)O [Rosuvastatin sodium]
% Inh. of oxazolone-induced mouse ear swelling ([2]; dose 2 × 0.3 mg): 20%

pIC50 [1, 5]: < 4.00
Compound: Simvastatin sodium
